Reference: ChEMBL document CHEMBL4507291 (2021)

Experiments:
[1] = target: Death-associated protein kinase 2 (Homo sapiens) (UniProt Q9UIK4)
[2] = test system: Mast/stem cell growth factor receptor Kit (Homo sapiens), P10721 [D816V]
[3] = target: T1, cAMP-dependent protein kinase catalytic subunit PRKX (Homo sapiens) (UniProt P51817)
T1 sequence (whole entry): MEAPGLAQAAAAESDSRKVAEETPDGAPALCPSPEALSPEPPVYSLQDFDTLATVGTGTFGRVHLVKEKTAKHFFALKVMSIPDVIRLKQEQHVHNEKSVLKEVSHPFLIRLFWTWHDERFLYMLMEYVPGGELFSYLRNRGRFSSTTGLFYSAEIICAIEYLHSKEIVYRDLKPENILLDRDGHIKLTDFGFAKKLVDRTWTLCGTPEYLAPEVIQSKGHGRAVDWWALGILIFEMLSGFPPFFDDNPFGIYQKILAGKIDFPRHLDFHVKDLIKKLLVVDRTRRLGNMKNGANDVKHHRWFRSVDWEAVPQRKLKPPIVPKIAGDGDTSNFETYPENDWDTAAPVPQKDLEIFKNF

[4] = target: TRAF2 and NCK-interacting protein kinase (Homo sapiens) (UniProt Q9UKE5)
[5] = target: Peripheral plasma membrane protein CASK (Homo sapiens) (UniProt O14936)
Sequence of Peripheral plasma membrane protein CASK (Homo sapiens) (O14936 whole entry): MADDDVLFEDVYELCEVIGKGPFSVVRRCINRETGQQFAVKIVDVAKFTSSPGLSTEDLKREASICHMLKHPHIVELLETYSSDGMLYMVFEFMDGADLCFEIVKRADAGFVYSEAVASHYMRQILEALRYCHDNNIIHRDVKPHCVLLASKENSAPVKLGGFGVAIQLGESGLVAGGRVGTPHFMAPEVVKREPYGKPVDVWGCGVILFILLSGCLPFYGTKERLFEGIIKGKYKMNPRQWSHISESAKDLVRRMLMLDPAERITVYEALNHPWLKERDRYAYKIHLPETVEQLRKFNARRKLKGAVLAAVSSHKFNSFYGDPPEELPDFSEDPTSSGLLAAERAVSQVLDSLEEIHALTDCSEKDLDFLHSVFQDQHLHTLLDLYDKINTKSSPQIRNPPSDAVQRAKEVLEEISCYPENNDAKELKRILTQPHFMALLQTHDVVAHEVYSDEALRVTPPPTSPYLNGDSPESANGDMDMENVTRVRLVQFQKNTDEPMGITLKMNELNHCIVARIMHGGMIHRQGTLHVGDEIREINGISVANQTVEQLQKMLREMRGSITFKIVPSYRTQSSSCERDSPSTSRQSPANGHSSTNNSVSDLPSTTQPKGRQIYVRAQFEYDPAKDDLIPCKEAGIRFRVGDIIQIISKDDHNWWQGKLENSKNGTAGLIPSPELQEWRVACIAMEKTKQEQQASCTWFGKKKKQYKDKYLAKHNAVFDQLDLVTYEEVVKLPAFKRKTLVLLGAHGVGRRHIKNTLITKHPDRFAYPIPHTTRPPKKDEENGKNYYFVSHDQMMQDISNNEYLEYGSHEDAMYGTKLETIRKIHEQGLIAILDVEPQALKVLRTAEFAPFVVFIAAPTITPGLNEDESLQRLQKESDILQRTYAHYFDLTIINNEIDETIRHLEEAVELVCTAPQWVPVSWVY

[6] = target: Testis-specific serine/threonine-protein kinase 3 (Homo sapiens) (UniProt Q96PN8)
Sequence of Testis-specific serine/threonine-protein kinase 3 (Homo sapiens) (Q96PN8 whole entry): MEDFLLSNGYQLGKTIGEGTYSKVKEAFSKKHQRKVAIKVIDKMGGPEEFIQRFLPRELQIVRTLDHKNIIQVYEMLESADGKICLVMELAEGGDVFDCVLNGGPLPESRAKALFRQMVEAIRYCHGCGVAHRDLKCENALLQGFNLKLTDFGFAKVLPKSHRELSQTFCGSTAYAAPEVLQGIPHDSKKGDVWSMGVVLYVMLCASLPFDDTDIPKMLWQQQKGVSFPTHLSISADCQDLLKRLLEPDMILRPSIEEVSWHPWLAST

[7] = target: Calcium/calmodulin-dependent protein kinase type II subunit beta (Homo sapiens) (UniProt Q13554)
[8] = target: Serine/threonine-protein kinase WNK2 (Homo sapiens) (UniProt Q9Y3S1)
Sequence of Serine/threonine-protein kinase WNK2 (Homo sapiens) (Q9Y3S1 whole entry, the tested form may be a part): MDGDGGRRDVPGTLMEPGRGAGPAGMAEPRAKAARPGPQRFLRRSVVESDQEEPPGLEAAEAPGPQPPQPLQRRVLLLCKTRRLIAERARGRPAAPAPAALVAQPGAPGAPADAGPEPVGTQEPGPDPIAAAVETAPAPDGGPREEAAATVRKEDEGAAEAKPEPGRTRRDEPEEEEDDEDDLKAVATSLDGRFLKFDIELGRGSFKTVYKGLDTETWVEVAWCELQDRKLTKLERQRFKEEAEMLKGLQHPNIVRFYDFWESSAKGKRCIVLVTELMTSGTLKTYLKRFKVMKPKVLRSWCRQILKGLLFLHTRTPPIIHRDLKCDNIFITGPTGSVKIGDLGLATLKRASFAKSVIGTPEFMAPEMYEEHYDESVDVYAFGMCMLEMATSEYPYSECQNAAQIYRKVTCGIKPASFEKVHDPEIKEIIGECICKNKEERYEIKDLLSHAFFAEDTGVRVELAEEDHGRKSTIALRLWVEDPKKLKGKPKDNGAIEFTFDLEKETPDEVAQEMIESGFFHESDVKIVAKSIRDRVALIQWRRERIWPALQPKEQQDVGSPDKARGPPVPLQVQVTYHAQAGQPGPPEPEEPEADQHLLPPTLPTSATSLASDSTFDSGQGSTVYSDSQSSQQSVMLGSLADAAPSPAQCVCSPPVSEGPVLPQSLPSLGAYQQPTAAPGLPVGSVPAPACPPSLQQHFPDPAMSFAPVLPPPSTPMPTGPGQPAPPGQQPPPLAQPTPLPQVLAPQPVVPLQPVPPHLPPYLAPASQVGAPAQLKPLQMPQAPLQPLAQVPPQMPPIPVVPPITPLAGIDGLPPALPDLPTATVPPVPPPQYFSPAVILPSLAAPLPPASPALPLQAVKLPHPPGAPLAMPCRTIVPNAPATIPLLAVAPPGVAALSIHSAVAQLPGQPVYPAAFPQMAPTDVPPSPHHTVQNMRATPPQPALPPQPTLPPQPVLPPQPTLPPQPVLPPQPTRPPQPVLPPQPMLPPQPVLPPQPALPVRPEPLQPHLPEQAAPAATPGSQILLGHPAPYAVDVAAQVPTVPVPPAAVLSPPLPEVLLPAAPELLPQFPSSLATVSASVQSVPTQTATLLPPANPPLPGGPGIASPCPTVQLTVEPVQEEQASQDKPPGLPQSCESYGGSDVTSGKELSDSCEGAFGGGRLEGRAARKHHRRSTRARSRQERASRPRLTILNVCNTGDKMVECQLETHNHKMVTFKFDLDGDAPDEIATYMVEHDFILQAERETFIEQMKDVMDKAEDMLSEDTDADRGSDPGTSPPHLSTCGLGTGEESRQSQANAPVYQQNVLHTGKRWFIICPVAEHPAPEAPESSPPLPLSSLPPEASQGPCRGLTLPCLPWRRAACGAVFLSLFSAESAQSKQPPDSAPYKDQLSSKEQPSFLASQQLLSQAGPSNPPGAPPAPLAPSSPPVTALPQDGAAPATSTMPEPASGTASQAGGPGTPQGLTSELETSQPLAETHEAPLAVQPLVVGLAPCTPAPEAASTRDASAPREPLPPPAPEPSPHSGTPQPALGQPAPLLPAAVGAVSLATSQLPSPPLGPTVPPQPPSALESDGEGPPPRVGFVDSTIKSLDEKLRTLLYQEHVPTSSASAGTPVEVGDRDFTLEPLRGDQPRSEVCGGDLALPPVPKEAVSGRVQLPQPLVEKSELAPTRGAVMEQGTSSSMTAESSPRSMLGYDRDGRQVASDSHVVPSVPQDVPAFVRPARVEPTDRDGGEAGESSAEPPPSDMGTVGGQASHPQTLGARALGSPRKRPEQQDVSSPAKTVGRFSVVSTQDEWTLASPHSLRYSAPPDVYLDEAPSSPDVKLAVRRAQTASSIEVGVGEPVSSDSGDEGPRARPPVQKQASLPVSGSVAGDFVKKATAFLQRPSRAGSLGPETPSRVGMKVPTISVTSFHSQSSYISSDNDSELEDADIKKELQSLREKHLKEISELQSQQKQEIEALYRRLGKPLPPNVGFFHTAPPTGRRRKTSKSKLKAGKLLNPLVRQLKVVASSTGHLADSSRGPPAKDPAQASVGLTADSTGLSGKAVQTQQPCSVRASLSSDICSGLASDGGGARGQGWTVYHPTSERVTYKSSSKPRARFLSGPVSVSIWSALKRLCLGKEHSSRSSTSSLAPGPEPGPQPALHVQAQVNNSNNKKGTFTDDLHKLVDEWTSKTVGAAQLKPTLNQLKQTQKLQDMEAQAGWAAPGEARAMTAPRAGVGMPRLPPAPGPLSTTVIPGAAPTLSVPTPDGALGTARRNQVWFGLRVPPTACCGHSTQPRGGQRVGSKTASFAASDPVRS

[9] = target: Ankyrin repeat and protein kinase domain-containing protein 1 (Homo sapiens) (UniProt Q8NFD2)
[10] = target: Insulin receptor-related protein (Homo sapiens) (UniProt P14616)
Sequence of Insulin receptor-related protein (Homo sapiens) (P14616 27-742 limits assumed): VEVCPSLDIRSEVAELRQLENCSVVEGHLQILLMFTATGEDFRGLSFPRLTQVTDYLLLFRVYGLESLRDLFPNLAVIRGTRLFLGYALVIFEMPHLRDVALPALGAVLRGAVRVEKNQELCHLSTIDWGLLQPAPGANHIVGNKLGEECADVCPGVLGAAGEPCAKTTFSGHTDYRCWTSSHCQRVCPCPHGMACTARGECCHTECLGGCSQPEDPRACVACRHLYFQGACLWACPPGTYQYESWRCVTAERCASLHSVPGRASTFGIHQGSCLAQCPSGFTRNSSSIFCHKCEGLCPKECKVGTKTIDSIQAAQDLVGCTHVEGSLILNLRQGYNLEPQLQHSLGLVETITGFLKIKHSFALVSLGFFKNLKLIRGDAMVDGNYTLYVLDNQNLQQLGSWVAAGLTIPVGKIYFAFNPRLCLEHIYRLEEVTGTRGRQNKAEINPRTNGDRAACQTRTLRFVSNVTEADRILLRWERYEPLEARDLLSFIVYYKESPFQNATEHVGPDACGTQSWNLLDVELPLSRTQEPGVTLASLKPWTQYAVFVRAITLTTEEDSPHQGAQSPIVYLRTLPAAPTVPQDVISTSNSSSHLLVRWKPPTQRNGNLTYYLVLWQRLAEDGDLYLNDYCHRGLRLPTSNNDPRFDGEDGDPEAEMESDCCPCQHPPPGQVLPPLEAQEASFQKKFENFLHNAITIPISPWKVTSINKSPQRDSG
Sequence of Insulin receptor-related protein (Homo sapiens) (P14616 747-1297 limits assumed): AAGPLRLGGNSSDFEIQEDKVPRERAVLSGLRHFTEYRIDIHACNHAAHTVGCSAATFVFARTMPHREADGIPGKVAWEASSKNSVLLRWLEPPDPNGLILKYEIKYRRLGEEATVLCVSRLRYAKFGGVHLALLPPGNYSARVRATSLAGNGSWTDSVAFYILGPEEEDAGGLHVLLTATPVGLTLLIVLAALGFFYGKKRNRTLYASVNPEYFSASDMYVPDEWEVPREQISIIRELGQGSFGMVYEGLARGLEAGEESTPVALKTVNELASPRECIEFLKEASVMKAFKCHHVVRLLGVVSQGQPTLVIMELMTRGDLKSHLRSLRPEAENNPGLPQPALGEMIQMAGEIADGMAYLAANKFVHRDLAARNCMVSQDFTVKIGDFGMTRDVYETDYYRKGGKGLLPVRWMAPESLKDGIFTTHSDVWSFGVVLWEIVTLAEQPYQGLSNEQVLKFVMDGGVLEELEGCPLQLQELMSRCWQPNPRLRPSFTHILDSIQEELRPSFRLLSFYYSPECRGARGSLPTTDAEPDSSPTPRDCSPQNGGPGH

[11] = target: T2, Ephrin type-B receptor 1 (Homo sapiens) (UniProt P54762)
T2 sequence (whole entry): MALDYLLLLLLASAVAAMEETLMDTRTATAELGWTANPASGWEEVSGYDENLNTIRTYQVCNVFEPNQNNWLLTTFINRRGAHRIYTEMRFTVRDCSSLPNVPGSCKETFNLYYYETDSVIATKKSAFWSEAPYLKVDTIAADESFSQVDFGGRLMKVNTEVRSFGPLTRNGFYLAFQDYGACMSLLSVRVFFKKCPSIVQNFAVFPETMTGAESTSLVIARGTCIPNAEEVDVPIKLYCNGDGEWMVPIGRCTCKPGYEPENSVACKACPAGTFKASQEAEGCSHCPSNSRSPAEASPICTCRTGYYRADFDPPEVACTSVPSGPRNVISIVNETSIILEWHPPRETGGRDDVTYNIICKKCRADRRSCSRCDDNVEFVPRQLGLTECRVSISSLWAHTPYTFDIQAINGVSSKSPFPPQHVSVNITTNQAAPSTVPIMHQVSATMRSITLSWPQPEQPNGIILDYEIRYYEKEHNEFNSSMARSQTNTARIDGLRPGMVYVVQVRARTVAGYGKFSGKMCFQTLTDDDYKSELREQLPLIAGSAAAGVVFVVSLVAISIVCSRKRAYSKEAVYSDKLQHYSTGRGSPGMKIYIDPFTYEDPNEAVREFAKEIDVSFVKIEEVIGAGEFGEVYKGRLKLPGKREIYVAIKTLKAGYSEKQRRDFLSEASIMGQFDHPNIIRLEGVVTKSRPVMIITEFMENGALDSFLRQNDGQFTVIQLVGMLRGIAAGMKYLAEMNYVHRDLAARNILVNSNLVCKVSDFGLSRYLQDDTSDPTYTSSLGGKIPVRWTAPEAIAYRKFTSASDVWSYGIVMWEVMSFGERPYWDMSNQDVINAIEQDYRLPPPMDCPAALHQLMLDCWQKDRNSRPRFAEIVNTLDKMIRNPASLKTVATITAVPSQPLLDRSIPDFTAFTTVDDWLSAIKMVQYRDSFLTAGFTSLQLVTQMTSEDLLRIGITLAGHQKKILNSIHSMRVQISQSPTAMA

[12] = target: 5-hydroxytryptamine receptor 2A (Homo sapiens) (UniProt P28223); details: Compound concentration 10.0 uM
[13] = target: Cyclin-dependent kinase 4 (Homo sapiens) (UniProt P11802)
Sequence of Cyclin-dependent kinase 4 (Homo sapiens) (P11802 whole entry): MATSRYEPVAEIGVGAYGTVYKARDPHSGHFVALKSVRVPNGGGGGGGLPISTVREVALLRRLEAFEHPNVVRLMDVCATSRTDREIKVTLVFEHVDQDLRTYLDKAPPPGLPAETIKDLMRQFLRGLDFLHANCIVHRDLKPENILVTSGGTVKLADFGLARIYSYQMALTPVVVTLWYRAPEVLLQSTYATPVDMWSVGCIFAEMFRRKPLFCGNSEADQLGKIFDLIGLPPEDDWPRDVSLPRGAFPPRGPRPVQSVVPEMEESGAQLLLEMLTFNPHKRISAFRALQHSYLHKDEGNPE

[14] = target: Tyrosine-protein kinase ABL1 (Homo sapiens) (UniProt P00519)
[15] = target: Mitogen-activated protein kinase kinase kinase 4 (Homo sapiens) (UniProt Q9Y6R4)
[16] = target: Phosphatidylinositol 4,5-bisphosphate 3-kinase catalytic subunit beta isoform (Homo sapiens) (UniProt P42338)
[17] = test system: Tyrosine-protein kinase ABL1 (Homo sapiens), P00519 [T315I]
[18] = target: T3, Serine/threonine-protein kinase NLK (Homo sapiens) (UniProt Q9UBE8)
T3 sequence (whole entry): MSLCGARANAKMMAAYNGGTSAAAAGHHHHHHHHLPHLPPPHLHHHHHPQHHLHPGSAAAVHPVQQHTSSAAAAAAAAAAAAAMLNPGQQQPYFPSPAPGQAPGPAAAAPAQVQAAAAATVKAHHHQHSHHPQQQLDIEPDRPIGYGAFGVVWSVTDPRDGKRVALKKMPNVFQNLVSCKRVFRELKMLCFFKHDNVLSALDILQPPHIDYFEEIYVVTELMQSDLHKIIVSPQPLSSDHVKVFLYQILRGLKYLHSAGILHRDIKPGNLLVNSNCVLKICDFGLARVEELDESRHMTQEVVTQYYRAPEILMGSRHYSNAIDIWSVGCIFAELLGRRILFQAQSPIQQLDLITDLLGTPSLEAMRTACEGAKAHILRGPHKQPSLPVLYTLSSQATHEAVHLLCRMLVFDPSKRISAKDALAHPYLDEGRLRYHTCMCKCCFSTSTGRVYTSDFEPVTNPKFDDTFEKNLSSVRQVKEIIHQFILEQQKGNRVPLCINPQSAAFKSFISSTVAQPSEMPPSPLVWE

[19] = target: Mitogen-activated protein kinase 8 (Homo sapiens) (UniProt P45983)
[20] = Compound concentration 1000.0 nM
[21] = Compound concentration 100.0 nM

C[C@@H]1CN(c2cc(-c3nn(C)c4ccc(OC5(C)CC5)cc34)ncn2)C[C@H](C)O1 [MLi-2-NC]
inactive: residual activity [1, 20] 89% | residual activity [2, 20] 94% | residual activity [3, 20] 92% | residual activity [4, 20] 80% | residual activity [5, 20] 93% | residual activity [6, 20] 75% | residual activity [7, 20] 96% | residual activity [8, 20] 63% | residual activity [9, 20] 67% | residual activity [10, 20] 91% | residual activity [11, 20] 99% | inhibition [12] 3.31% | residual activity [13, 20] 91% | residual activity [14, 20] 79% | residual activity [15, 20] 100% | residual activity [16, 20] 100% | residual activity [17, 20] 73% | residual activity [18, 20] 96% | residual activity [19, 20] 82%

C[C@@H]1CN(c2cc(-c3n[nH]c4ccc(OC5(C)CC5)cc34)ncn2)C[C@H](C)O1 [MLi-2]
inactive: residual activity [1, 21] 85% | residual activity [2, 21] 79% | residual activity [3, 21] 86% | residual activity [4, 21] 100% | residual activity [5, 21] 59% | residual activity [6, 21] 79% | residual activity [7, 21] 100% | residual activity [8, 21] 84% | residual activity [9, 21] 79% | residual activity [10, 21] 57% | residual activity [11, 21] 83% | inhibition [12] 2.75% | residual activity [13, 21] 71% | residual activity [14, 21] 67% | residual activity [15, 21] 100% | residual activity [16, 21] 59% | residual activity [17, 21] 72% | residual activity [18, 21] 100% | residual activity [19, 21] 63%
